Data from US8563730B2, “Pyrazole and fused pyrazole glucokinase activators” (Takeda San Diego, Inc., priority 2008, dated 2013).
pEC50: −log10 of the molar value. Where two headings read alike, the source gives them in different places.

Biological target: T1, GK (glucokinase, residues 12-465) (Homo sapiens, UniProt P35557)
T1 construct: I.D. No. 1 corresponds to residues 12-465 of glucokinase; made in house; host or cells: DH10b-T1r E. coli
T1 sequence (P35557 with tags, fused parts or gaps isoform P35557-2): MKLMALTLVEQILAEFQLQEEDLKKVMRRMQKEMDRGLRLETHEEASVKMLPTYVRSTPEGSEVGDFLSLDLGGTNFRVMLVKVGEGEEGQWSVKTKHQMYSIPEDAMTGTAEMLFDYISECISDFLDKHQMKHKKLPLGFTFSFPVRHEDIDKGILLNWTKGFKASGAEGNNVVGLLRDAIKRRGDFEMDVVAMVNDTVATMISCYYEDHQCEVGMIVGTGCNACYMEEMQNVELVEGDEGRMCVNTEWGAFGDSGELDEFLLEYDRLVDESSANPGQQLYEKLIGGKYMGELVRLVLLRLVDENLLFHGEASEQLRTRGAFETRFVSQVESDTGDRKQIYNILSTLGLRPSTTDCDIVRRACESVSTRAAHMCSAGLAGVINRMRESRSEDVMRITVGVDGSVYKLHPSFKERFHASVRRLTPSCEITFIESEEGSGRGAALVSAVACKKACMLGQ
Assay: enzymatic glucokinase activity assay (ATP consumption, KinaseGlo luminescence)
Format: biochemical
Conditions: 5 μM ATP, 5 mM Glucose, reported as bins; for pEC50: Kact = concentration that displays 50% of the maximal increase in GK activity, 60 min, room temperature, read-out: pKact
Procedure, shortened: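 E. coli-expressed recombinant GK purified by two anion-exchange steps. Reaction in 25 mM Hepes pH 7.2, 10 mM MgCl2, 1 mM DTT, 5 μM ATP, 5 mM glucose, 2% DMSO, 60 min at room temperature. ATP consumption quantified by KinaseGlo luminescence; pKact and % ACTmax derived by non-linear curve fitting.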

[1] = calculated maximal gain in GK enzyme activity at a saturating concentration of the compound, read-out: % ACTmax
[2] = read-out: % ACTmax, calculated maximal gain in GK enzyme activity at a saturating concentration of the compound

| Structure (SMILES) | pEC50 | Emax [1] [%] | Emax [2] [%] |
| --- | --- | --- | --- |
| Nc1cc(S(=O)(=O)C2CC2)c2cnn([C@H](CC3CCOCC3)C(=O)Nc3cnccn3)c2n1 [Compound 163, (R)-2-(6-amino-4-(cyclopropylsulfonyl)-1H-pyrazolo[3,4-b]pyridin-1-yl)-N-(pyrazin-2-yl)-3-(tetrahydro-2H-pyran-4-yl)propanamide] | 5.50 to 5.80 | ≤ 90 | – |
| O=C(Nc1ncc(F)cc1F)C(CC1CCOCC1)n1ncc2c(S(=O)(=O)C3CC3)cccc21 (stereo not shown) [Compound 88, 2-(4-(cyclopropylsulfonyl)-1H-indazol-1-yl)-N-(3,5-difluoropyridin-2-yl)-3-(tetrahydro-2H-pyran-4-yl)propanamide] | ≤ 4.80 | ≤ 90 | – |
| O=C(Nc1cnccn1)[C@H](CC1CCOCC1)n1ncc2c(S(=O)(=O)C3CC3)ccnc21 [Compound 162, (S)-2-(4-(cyclopropylsulfonyl)-1H-pyrazolo[3,4-b]pyridin-1-yl)-N-(pyrazin-2-yl)-3-(tetrahydro-2H-pyran-4-yl)propanamide] | 5.50 to 5.80 | 106 to 110 | – |
| O=C(Nc1ncc(F)s1)C(CC1CCOCC1)n1cc(S(=O)(=O)c2ccc(Cl)cc2)cn1 (stereo not shown) [Compound 29, 2-(4-(4-chlorophenylsulfonyl)-1H-pyrazol-1-yl)-N-(5-fluorothiazol-2-yl)-3-(tetrahydro-2H-pyran-4-yl)propanamide] | 5.90 to 6.40 | ≥ 111 | – |
| CC(C)(C)S(=O)(=O)c1cnn(C(CC2CCOCC2)C(=O)Nc2ncc(F)s2)c1 (stereo not shown) [Compound 49, 2-(4-(tert-butylsulfonyl)-1H-pyrazol-1-yl)-N-(5-fluorothiazol-2-yl)-3-(tetrahydro-2H-pyran-4-yl)propanamide] | 4.90 to 5.40 | 90 to 100 | – |
| O=C(Nc1ncc(F)s1)C(CC1CCOCC1)n1ncc2c(S(=O)(=O)C3CC3)cc(O)cc21 (stereo not shown) [Compound 130, 2-(4-(cyclopropylsulfonyl)-6-hydroxy-1H-indazol-1-yl)-N-(5-fluorothiazol-2-yl)-3-(tetrahydro-2H-pyran-4-yl)propanamide] | ≥ 6.50 | 101 to 105 | – |
| N#Cc1cnc(NC(=O)[C@@H](CC2CCOCC2)n2ncc3c(S(=O)(=O)C4CC4)cccc32)s1 [Compound 137, (R)-N-(5-cyanothiazol-2-yl)-2-(4-(cyclopropylsulfonyl)-1H-indazol-1-yl)-3-(tetrahydro-2H-pyran-4-yl)propanamide] | 4.90 to 5.40 | ≤ 90 | – |
| O=C(Nc1ncc(F)s1)[C@H](CC1CCOCC1)n1cc(S(=O)(=O)C2CC2)cn1 [Compound 32, (S)-2-(4-(cyclopropylsulfonyl)-1H-pyrazol-1-yl)-N-(5-fluorothiazol-2-yl)-3-(tetrahydro-2H-pyran-4-yl)propanamide] | 4.90 to 5.40 | 101 to 105 | – |
| O=C(Nc1ncc(F)s1)C(CC1CCOCC1)n1ncc2c(S(=O)(=O)C3CC3)c(Cl)ccc21 (stereo not shown) [Compound 22, 2-(5-chloro-4-(cyclopropylsulfonyl)-1H-indazol-1-yl)-N-(5-fluorothiazol-2-yl)-3-(tetrahydro-2H-pyran-4-yl)propanamide] | ≥ 6.50 | ≥ 111 | – |
| Cc1nn(C(CC2CCOCC2)C(=O)Nc2ncc(F)s2)c(C)c1S(=O)(=O)C1CC1 (stereo not shown) [Compound 27, 2-(4-(cyclopropylsulfonyl)-3,5-dimethyl-1H-pyrazol-1-yl)-N-(5-fluorothiazol-2-yl)-3-(tetrahydro-2H-pyran-4-yl)propanamide] | 5.50 to 5.80 | ≤ 90 | – |
| O=C(Nc1cnccn1)C(CC1CCOCC1)n1cc(S(=O)(=O)C2CC2)cn1 (stereo not shown) [Compound 46, 2-(4-(cyclopropylsulfonyl)-1H-pyrazol-1-yl)-N-(pyrazin-2-yl)-3-(tetrahydro-2H-pyran-4-yl)propanamide] | ≤ 4.80 | 101 to 105 | – |
| N#Cc1cc(S(=O)(=O)C2CC2)c2cnn([C@H](CC3CCOCC3)C(=O)Nc3ncc(F)s3)c2c1 [Compound 132, (R)-2-(6-cyano-4-(cyclopropylsulfonyl)-1H-indazol-1-yl)-N-(5-fluorothiazol-2-yl)-3-(tetrahydro-2H-pyran-4-yl)propanamide] | 5.50 to 5.80 | 90 to 100 | – |
| O=C1CC[C@H](C[C@@H](C(=O)Nc2ncc(Cl)s2)n2ncc3c(S(=O)(=O)C4CC4)cccc32)C1 [Compound 113, (S)-N-(5-chlorothiazol-2-yl)-2-(4-(cyclopropylsulfonyl)-1H-indazol-1-yl)-3-((R)-3-oxocyclopentyl)propanamide] | 5.90 to 6.40 | 101 to 105 | – |
| Cc1cc(NC(=O)C(CC2CCOCC2)n2ncc3c(S(=O)(=O)C4CC4)cccc32)nn1C (stereo not shown) [Compound 134, 2-(4-(cyclopropylsulfonyl)-1H-indazol-1-yl)-N-(1,5-dimethyl-1H-pyrazol-3-yl)-3-(tetrahydro-2H-pyran-4-yl)propanamide] | 5.50 to 5.80 | ≥ 111 | – |
| Cc1cc(S(=O)(=O)C2CC2)c2cnn(C(CC3CCOCC3)C(=O)Nc3ncc(F)s3)c2c1 (stereo not shown) [Compound 122, 2-(4-(cyclopropylsulfonyl)-6-methyl-1H-indazol-1-yl)-N-(5-fluorothiazol-2-yl)-3-(tetrahydro-2H-pyran-4-yl)propanamide] | 4.90 to 5.40 | ≥ 111 | – |
| COc1cc(S(=O)(=O)C2CC2)c2cnn([C@H](CC3CCOCC3)C(=O)Nc3ncc(F)s3)c2c1 [Compound 129, (R)-2-(4-(cyclopropylsulfonyl)-6-methoxy-1H-indazol-1-yl)-N-(5-fluorothiazol-2-yl)-3-(tetrahydro-2H-pyran-4-yl)propanamide] | 4.90 to 5.40 | ≤ 90 | – |
| O=C(Nc1ncc(F)s1)C(CC1CCOCC1)n1ncc2c(S(=O)(=O)C3CC3)c(Br)ccc21 (stereo not shown) [Compound 150, 2-(5-bromo-4-(cyclopropylsulfonyl)-1H-indazol-1-yl)-N-(5-fluorothiazol-2-yl)-3-(tetrahydro-2H-pyran-4-yl)propanamide] | 5.90 to 6.40 | ≥ 111 | – |
| O=C(Nc1cnccn1)C(CC1CCOCC1)n1cc2c(S(=O)(=O)C3CC3)cc(Cl)cc2n1 (stereo not shown) [Compound 168, 2-(6-chloro-4-(cyclopropylsulfonyl)-2H-indazol-2-yl)-N-(pyrazin-2-yl)-3-(tetrahydro-2H-pyran-4-yl)propanamide] | ≤ 4.80 | ≤ 90 | – |
| O=C(Nc1ncc(Cl)s1)C(CC1CCOCC1)n1cc(S(=O)(=O)C2CCCC2)cn1 (stereo not shown) [Compound 5, N-(5-chlorothiazol-2-yl)-2-(4-(cyclopentylsulfonyl)-1H-pyrazol-1-yl)-3-(tetrahydro-2H-pyran-4-yl)propanamide] | 5.90 to 6.40 | – | ≥ 111 |
| O=C(Nc1cnccn1)C(CC1CCOCC1)n1cc2c(S(=O)(=O)C3CC3)cncc2n1 (stereo not shown) [Compound 169, 2-(4-(cyclopropylsulfonyl)-2H-pyrazolo[3,4-c]pyridin-2-yl)-N-(pyrazin-2-yl)-3-(tetrahydro-2H-pyran-4-yl)propanamide] | ≤ 4.80 | ≤ 90 | – |
| Nc1cc(S(=O)(=O)C2CC2)c2cnn([C@H](CC3CCOCC3)C(=O)Nc3ncc(F)s3)c2n1 [Compound 111, (R)-2-(6-amino-4-(cyclopropylsulfonyl)-1H-pyrazol[3,4-b]pyridin-1-yl)-N-(5-fluorothiazol-2-yl)-3-(tetrahydro-2H-pyran-4-yl)propanamide] | 5.90 to 6.40 | – | 106 to 110 |
| Cn1ccc(NC(=O)C(CC2CCOCC2)n2cc3c(S(=O)(=O)C4CC4)cc(Cl)cc3n2)n1 (stereo not shown) [Compound 167, 2-(6-chloro-4-(cyclopropylsulfonyl)-2H-indazol-2-yl)-N-(1-methyl-1H-pyrazol-3-yl)-3-(tetrahydro-2H-pyran-4-yl)propanamide] | 4.90 to 5.40 | ≤ 90 | – |
| O=C(Nc1ncc(F)s1)C(CC1CCOCC1)n1ncc2c(S(=O)(=O)C3CC3)c(O)ccc21 (stereo not shown) [Compound 144, 2-(4-(cyclopropylsulfonyl)-5-hydroxy-1H-indazol-1-yl)-N-(5-fluorothiazol-2-yl)-3-(tetrahydro-2H-pyran-4-yl)propanamide] | ≥ 6.50 | 106 to 110 | – |
| O=C1CC[C@H](CC(C(=O)Nc2cnccn2)n2ncc3c(S(=O)(=O)C4CC4)cccc32)C1 (stereo partly drawn) [Compound 71, 2-(4-(cyclopropylsulfonyl)-1H-indazol-1-yl)-3-((R)-3-oxocyclopentyl)-N-(pyrazin-2-yl)propanamide] | 5.50 to 5.80 | ≤ 90 | – |
| CS(=O)(=O)n1ccc(NC(=O)C(CC2CCOCC2)n2ncc3c(S(=O)(=O)C4CC4)cccc32)n1 (stereo not shown) [Compound 146, 2-(4-(cyclopropylsulfonyl)-1H-indazol-1-yl)-N-(1-(methylsulfonyl)-1H-pyrazol-3-yl)-3-(tetrahydro-2H-pyran-4-yl)propanamide] | 4.90 to 5.40 | ≤ 90 | – |
| O=C(Nc1ncc(F)s1)[C@H](CC1CCOCC1)n1ncc2c(S(=O)(=O)C3CC3)ccnc21 [Compound 138, (S)-2-(4-(cyclopropylsulfonyl)-1H-pyrazol[3,4-b]pyridin-1-yl)-N-(5-fluorothiazol-2-yl)-3-(tetrahydro-2H-pyran-4-yl)propanamide] | 5.90 to 6.40 | 90 to 100 | – |
